Where a name gives a salt, the structure may show the parent alone.
Test system: Acinetobacter baumannii ATCC17961
Assay: Antimicrobial susceptibility testing: 90% growth inhibitory concentration (IC90) determination, Iso-Sensitest broth, OD 600 nm
Format: cell-based
Conditions: 90% growth inhibitory concentration, Acinetobacter baumannii ATCC17961, Iso-Sensitest broth, OD 600 nm over 16 h; read-out: ATCC 17961 IC90
In short: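 Twofold serial dilutions (e.g. 50–0.097 μM final) incubated with ~5×10^5 CFU/ml in Iso-Sensitest broth at 35±2 °C. OD600 read every 20 min for 16 h; IC90 derived from growth inhibition during logarithmic phase.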

Row | Structure (SMILES) | IC90 [µM]
1 | CCc1cc(Nc2nccn3c(-c4c(F)cccc4F)cnc23)ccc1C(=O)NCCOCCN [Example 214, N-[2-(2-amino-ethoxy)ethyl]-4-[[3-(2,6-difluorophenyl)imidazo[1,2-a]pyrazin-8-yl]amino]-2-ethyl-benzamide] | 0.95
2 | COc1ccc(-c2cnc3c(Nc4cc(C)c(C(=O)NCCOCCNC(=O)[C@@H]5C[C@@H](O)CN5)c(F)c4)nccn23)c(F)c1F [Example 215, (2S,4R)-N-(2-(2-(4-((3-(2,3-difluoro-4-methoxyphenyl)imidazo[1,2-a]pyrazin-8-yl)amino)-2-fluoro-6-methyl-benzamido)ethoxy)ethyl)-4-hydroxy-pyrrolidine-2-carboxamide] | 0.23
3 | CCc1cc(Nc2nccn3c(-c4ccc(OC)c(F)c4F)cnc23)ccc1C(=O)NCCNCCNCC(=O)O [Example 216, (2-((2-(4-((3-(2,3-difluoro-4-methoxyphenyl)imidazo[1,2-a]pyrazin-8-yl)amino)-2-ethyl-benzamido)ethyl)amino)ethyl) glycine] | 0.49
4 | COc1ccc(-c2cnc3c(Nc4cc(F)c(C(=O)NCCOCCN)c(Br)c4)nccn23)c(F)c1F [Example 217, N-(2-(2-amino-ethoxy)ethyl)-2-bromo-4-((3-(2,3-difluoro-4-methoxyphenyl)imidazo[1,2-a]pyrazin-8-yl)amino)-6-fluorobenzamide dihydrochloride] | 0.1
5 | CCc1cc(Nc2nccn3c(-c4ccc(OC)c(F)c4F)cnc23)ccc1C(=O)N[C@@H](C)CNCCO [Example 218, 4-[[3-(2,3-difluoro-4-methoxy-phenyl)imidazo [1,2-a]pyrazin-8-yl]amino]-2-ethyl-N-[(1S)-2-(2-hydroxyethyl-amino)-1-methyl-ethyl]benzamide] | 0.54
6 | CCc1cc(Nc2nccn3c(-c4ccc(OC)c(F)c4F)cnc23)ccc1C(=O)N[C@@H](C)CNCCN [Example 219, N-[(1S)-2-(2-aminoethyl-amino)-1-methyl-ethyl]-4-[[3-(2,3-difluoro-4-methoxy-phenyl)imidazo[1,2-a]pyrazin-8-yl]amino]-2-ethyl-benzamide; formic acid] | 0.58
7 | CCc1cc(Nc2nccn3c(-c4cc(Cl)c(OC)cc4F)cnc23)ccc1C(=O)NCCOCCN [Example 220, N-[2-(2-amino-ethoxy)ethyl]-4-[[3-(5-chloro-2-fluoro-4-methoxy-phenyl)imidazo[1,2-a]pyrazin-8-yl]amino]-2-ethyl-benzamide] | 0.08
8 | COc1ccc(-c2cnc3c(Nc4ccc(C(=O)NCCCNCCO)c(Cl)c4)nccn23)c(F)c1F [Example 221, 2-chloro-4-((3-(2,3-difluoro-4-methoxyphenyl)imidazo[1,2-a]pyrazin-8-yl)amino)-N-(3-((2-hydroxyethyl)amino)propyl) benzamide 2-chloro-4-((3-(2,3-difluoro-4-methoxyphenyl)imidazo[1,2-a]pyrazin-8-yl)amino)-N-(3-((2-hydroxyethyl)amino)propyl)benzamide] | 0.08
9 | CCc1cc(Nc2nccn3c(-c4cc(F)c(OC)cc4F)cnc23)ccc1C(=O)NCCOCCN [Example 222, N-[2-(2-amino-ethoxy)ethyl]-4-[[3-(2,5-difluoro-4-methoxy-phenyl)imidazo[1,2-a]pyrazin-8-yl]amino]-2-ethyl-benzamide] | 0.04
10 | CCc1cc(Nc2nccn3c(-c4ccc(OC)c(F)c4F)cnc23)ccc1C(=O)NCCCCCN(C)C [Example 223, 4-((3-(2,3-difluoro-4-methoxyphenyl)imidazo[1,2-a]pyrazin-8-yl)amino)-N-(5-(dimethylamino)pentyl)-2-ethylbenzamide] | 0.03
11 | CCOCCCNC(=O)c1ccc(Nc2nccn3c(-c4ccc(OC)c(F)c4F)cnc23)cc1CC [Example 224, 4-((3-(2,3-difluoro-4-methoxyphenyl)imidazo[1,2-a]pyrazin-8-yl)amino)-N-(3-ethoxypropyl)-2-ethylbenzamide] | 0.18
12 | C#CCNCCCNC(=O)c1ccc(Nc2nccn3c(-c4ccc(OC)c(F)c4F)cnc23)cc1CC [Example 225, 4-((3-(2,3-difluoro-4-methoxyphenyl)imidazo[1,2-a]pyrazin-8-yl)amino)-2-ethyl-N-(3-(prop-2-yn-1-ylamino)propyl) benzamide] | 0.05
13 | C#CCNCCCCNC(=O)c1ccc(Nc2nccn3c(-c4ccc(OC)c(F)c4F)cnc23)cc1CC [Example 227, 4-[[3-(2,3-difluoro-4-methoxy-phenyl)imidazo[1,2-a]pyrazin-8-yl]amino]-2-ethyl-N-[4-(prop-2-ynylamino)butyl]benzamide] | 0.03
14 | CCc1cc(Nc2nccn3c(-c4ccc(OC)c(F)c4F)cnc23)ccc1C(=O)N[C@H](C)CNCCCCNCCCN [Example 228, (R)-N-(1-((4-((3-aminopropyl)amino)butyl)amino)propan-2-yl)-4-((3-(2,3-difluoro-4-methoxyphenyl)imidazo[1,2-a]pyrazin-8-yl)amino)-2-ethylbenzamide trihydrochloride] | 0.51
15 | CCc1cc(Nc2nccn3c(-c4ccc(OC)cc4C(F)F)cnc23)ccc1C(=O)NCCOCCN [Example 229, N-[2-(2-amino-ethoxy)ethyl]-4-[[3-[2-(difluoro-methyl)-4-methoxy-phenyl]imidazo [1,2-a]pyrazin-8-yl]amino]-2-ethyl-benzamide] | 0.04
16 | CCc1cc(Nc2nccn3c(-c4ccc(OC)c(F)c4C(F)(F)F)cnc23)ccc1C(=O)NCCOCCN [Example 231] | 0.06
